Experimental data taken from paper PMC4195672, “The Red Imported Fire Ant (Solenopsis invicta Buren) Kept Y not F: Predicted sNPY Endogenous Ligands Deorphanize the Short NPF (sNPF) Receptor” (PLoS ONE, 2014).
Entries after “also recorded” stand apart in the source; their conditions may differ.

Columns and labels:
[1] = test system: S. invicta sNPF receptor (HA-tagged, stably expressed in CHO-K1 cells); test: Inhibition of forskolin-stimulated intracellular cAMP in SisNPFR-C6E8 cell line (cAMP EIA); assay type: cell-based, Solenopsis invicta; details: for Activity on the receptor (change of forskolin-stimulated cAMP), result in words: forskolin 10 µM, peptide at 1 µM (analogous sNP(F) tested at 10 nM and 1 µM), three biological replicates; for EC50: 50 µM Ro-20-1724, forskolin 10 µM with 0-10 µM peptide (10 concentrations), 1 h, 37°C, three independent biological replicates
Experimental: For the functional characterization of S. invicta sNPFR, stably transformed cell lines were established as described. In brief, CHO-K1 cells were obtained from the American Type Culture Collection (ATCC, Manassas, VA, USA) and grown as described in a 5% CO2 humidified incubator at 37°C. For transfection, CHO-K1 cells were seeded into T-25 tissue culture flasks and allowed to grow overnight until 50% confluent. Cells were transfected in serum-free Opti-MEM medium (Life Technologies, Gaithersburg, MD, USA) with the cationic lipid reagent Lipofectin (Life Technologies) (6 µl) and 2 µg of the expression construct according to the manufacturer’s protocol. After 6 h, the lipofectin-containing medium was removed and replaced with F12K (Sigma, St. Louis, MO, USA) medium plus 10% fetal bovine serum (EquiTech Bio, Kerrville, TX, USA) without antibiotic. After 48 h of growth, the cells were split into the same medium but with antibiotic Geneticin (Invitrogen) (800 µg/ml), and selection continued for 5 weeks followed by isolation of clonal lines. A total of 14 clonal cell lines were obtained by dilution and selection of single cells distributed in a 96-well plate (96 theoretical single cells). Presence of S. invicta sNPFR transcript was verified by screening by RT-PCR by pooling aliquots from clonal cell lines. For this, total RNA was isolated by RNeasy Mini kit (Qiagen) and used for cDNA synthesis with SuperScript III First-Strand Synthesis System followed by RT-PCR with receptor forward sNPFRf1 and reverse sNPFRr1 primers (Table S1). The cell lines from groups that generated the RT-PCR product of the expected size were further screened. Single positive clonal cell lines were subjected to functional assay using S. invicta sNPF1 and sNPF2 as ligands. Cell line C6 was further selected to obtain a line designated SisNPFR-C6E8, which was the best performing cell line and was chosen for receptor functional characterization.
To quantify changes in intracellular cAMP, 1×10^5 cells of SisNPFR-C6E8 were seeded in each well of a 6-well plate and incubated at 37°C in presence of 5% CO2 for 24 h to allow cell attachment. Cell culture medium [F12 K medium with 10% fetal bovine serum and 400 µg/ml of Geneticin] was then replaced with the same fresh medium as above and the cells were grown for additional 48 h until they reached 90–100% confluence. The cells were rinsed twice with F12 K medium only (serum and antibiotic free) and then incubated in 50 µM Ro-20-1724 phosphodiesterase inhibitor (Santa Cruz Biotechnology, Santa Cruz, CA, USA) in F12 K medium. Forskolin (10 µM) (Cayman Chemical, Ann Arbor, MI, USA) or forskolin (10 µM) with 0–10 µM solutions of ligands (10 concentrations), respectively, were added to the cells and incubated at 37°C in the presence of 5% CO2 for 1 h. Cells were rinsed once with F12 K medium, serum- and antibiotic-free, followed by lysis with 274 µl of 0.1 M HCl at RT for 20 min and centrifugation at 1000 g for 10 min. The supernatant was used for cAMP measurements using the cyclic AMP EIA Kit (Cayman Chemical) following the manufacturer’s protocol. In brief, 50 µl of supernatants and cAMP standards were loaded in a 96-well plate, and the cAMP EIA buffer was used as blank. cAMP AChE tracer (50 µl) (cAMP bound to acetylcholinesterase for competition) and 50 µl of anti-cAMP specific antiserum were added. Then the mixture was incubated at 4°C for 18 h. The mixture was removed and the plate was rinsed five times with wash buffer containing 0.05% polysorbate-20. After washing, the plate was developed at RT for 2 h using the Ellman’s reagent and the OD (412 nm) was measured in a VersaMax tunable microplate reader (Molecular Devices, Sunnyvale, CA, USA). cAMP level was calculated using Cayman provided formulas and aided by software located at http://www.myassays.com/(MyAssays Ltd., Haywards Heath, West Sussex, UK) for the output standard line graph and cAMP concentration calculations. […]

[2] = test system: S. invicta sNPF receptor (SisNPFR-C6E8 cell line); test: Pilot study: stimulation of intracellular cAMP production in SisNPFR-C6E8 cell line; assay type: cell-based, Solenopsis invicta
Experimental: To quantify changes in intracellular cAMP, 1×10^5 cells of SisNPFR-C6E8 were seeded in each well of a 6-well plate and incubated at 37°C in presence of 5% CO2 for 24 h to allow cell attachment. Cell culture medium [F12 K medium with 10% fetal bovine serum and 400 µg/ml of Geneticin] was then replaced with the same fresh medium as above and the cells were grown for additional 48 h until they reached 90–100% confluence. The cells were rinsed twice with F12 K medium only (serum and antibiotic free) and then incubated in 50 µM Ro-20-1724 phosphodiesterase inhibitor (Santa Cruz Biotechnology, Santa Cruz, CA, USA) in F12 K medium. […] After washing, the plate was developed at RT for 2 h using the Ellman’s reagent and the OD (412 nm) was measured in a VersaMax tunable microplate reader (Molecular Devices, Sunnyvale, CA, USA). cAMP level was calculated using Cayman provided formulas and aided by software located at http://www.myassays.com/(MyAssays Ltd., Haywards Heath, West Sussex, UK) for the output standard line graph and cAMP concentration calculations. […] For this, the average absorbance readings for non-specific binding (NSB) and B0 wells were obtained, and the NSB average was deducted from the B0 average to generate the corrected B0 maximum binding value. […] The cAMP concentration of each sample was determined on the basis of the standard curve. […]

Substance | Activity on the receptor (change of forskolin-stimulated cAMP), result in words [1] | Stimulation of intracellular cAMP production (without forskolin), result in words [2] | EC50 [1] | Activity on the receptor (change of forskolin-stimulated cAMP), result in words ([1]; listed as honey bee long NPF (NPY))
SPSLRLRFa [Drome sNPF212–19] | not active1 µM | – | – | –
SLRSALAAGHLRFa [Analogous sNP(F), Analog of S. invicta sNPF1 with C-terminal amidated Y switched to F] | eliminates the ligand activity on the receptor | – | – | –
SLRSALAAGHLRYa [S. invicta sNPF1] | decreased cAMP | did not stimulate production of intracellular cAMP | 3.28 nM | –
WFGDVNQKPIRSPSLRLRFa [Drome sNPF2, Drosophila melanogaster sNPF peptide (AAN11060.1)] | not active1 µM | – | – | –
SALAAGHLRYa [S. invicta sNPF2] | – | did not stimulate production of intracellular cAMP | 8.6 nM | –
AQRSPSLRLRFa [Drome sNPF1, Drosophila melanogaster sNPF peptide (AAN11060.1)] | not active1 µM | – | – | –
EPEPMARPTRPEIFTSPEELRRYIDHVSDYYLLSGKARYa [Apime NPY, Honey bee (A. mellifera) NPY, long NPF (NP_001161192.1), commercially synthesized] | failed to change the cAMP production; also recorded: not active1 µM | – | – | not activated
